In US7846434B2, “Materials and methods for improved immunoglycoproteins” (Trubion Pharmaceuticals, Inc., priority 2006, dated 2010):
“And” between values parts separate entries of the source, which are not always exact repeats. Equal entries are not always repeated.

How the values were obtained:
[1] = tested on: BJAB B cells; assay: ADCC, 51Cr-labeled BJAB B cells with human PBMC effectors; type: cell-based
Description: To determine the ADCC activity of purified TRU-016, labeled BJAB B cells were used as targets and human peripheral blood mononuclear cells (PBMC) as effector cells. BJAB B cells (10^7 cells) were labeled with 500 μCi/mL ^51Cr sodium chromate for 2 hours at 37° C. in IMDM/10% FBS. PBMCs were isolated from heparinized, human whole blood by fractionation over Lymphocyte Separation Media (LSM, ICN Biomedical) gradients. Reagent samples were added to RPMI media with 10% FBS and serial dilutions of each reagent were prepared. The ^51Cr labeled BJAB were added at 2×10^4 cells/well. The PBMCs were then added at 5×10^5 cells/well for a final ratio of 25:1 effectors (PBMC):targets (BJAB). Reactions were set up in quadruplicate wells of a 96 well plate. Reactions were allowed to proceed for 6 hours at 37° C. in 5% CO2 prior to harvesting and counting. CPM released was measured on a Packard TopCounNXT from 50 μl dried culture supernatant. Percent specific killing was calculated by subtracting (cpm [mean of quadruplicate samples] of sample−cpm spontaneous release)/(cpm maximal release−cpm spontaneous release)×100, and data were plotted as % specific killing versus TRU-016 concentration.

[2] = tested on: CD37; assay: Binding of TRU-016 to CD37 expressing Daudi cells; design: species or system human
Description: The cells are then incubated with a FITC-conjugated goat anti-human IgG Fc specific antibody (Caltag H10501). This antibody will bind to the Fc region of the human IgG chain of TRU-016 bound to the cells. The antibody is diluted 1:50 in FACS buffer and 100 μL is added to each well. The plate is incubated at 4° C. in the dark for 45 minutes. Any unbound FITC-labeled antibody is removed by adding 100 μL of FACS buffer to each well, centrifuging at 250×g for 3 minutes at 15° C. followed by removal of supernatant. This is followed by a second wash with 200 μL/well FACS buffer. The cells are resusupended with 200 μL/well 2% paraformaldehyde and stored at 4° C. overnight. Each sample's bound fluorescence is measured on a BD FACSCalibur flow cytometry system and analyzed using Cell Quest Pro software (Becton Dickinson, ver 5.2). The GeoMean fluorescence intensity for each sample is plotted relative to the TRU-016 concentration. A dose response curve is generated and fit to a 4-parameter logistic (4-PL) curve using the SoftMax Pro software (Molecular Devices, ver 5.0.1). Titrations of TRU-016 are utilized to create a dose response curve of the untreated control and CS treated samples for comparison.

[3] = tested on: CHO-K1 cells transfected with TRU-016; assay: Effect of castanospermine on CHO-K1 TRU-016 production, shake flasks; type: cell-based, Chinese hamster; settings: for Average TRU-016 Produced (μg/mL) ± SD: duplicate flasks; for Viability at Harvest (%): harvest day 10, listed as CS
Description: Prior to initiation of the experiments, CHO-K1 cells transfected with TRU-016 (CAS029f053) were grown in vented shake flasks in CD-CHO chemically-defined media (GIBCO-Invitrogen) supplemented with 25 uM methionine sulfoximine (MSX) at 37° C. and 5% carbon dioxide in a humidified incubator. Shaker speed was set at 125 RPM. A 400 mM stock concentration of castanospermine (Alexis Biochemicals) was prepared by dilution of the CS in sterile, distilled/deionized water (MediaTech) followed by filtration through a 13 mm Acrodisc® with a 0.2 μm HT Tuffryn membrane (Pall Corporation). Stock solution was aliquoted into sterile, O-ringed, 0.5 mL microcentrifuge tubes (Fisherbrand, Fisher Scientific) and frozen at −20° C. Approximately 1 hour prior to initiation of experiments, needed aliquots were thawed at room temperature and the contents of each vial mixed well by vortexing.
For the experiment, cells in log phase growth were seeded in the above medium into a volume of 60 mL in 250 mL shaker flasks at a density of 220,000 cells/mL and CS added at the concentration to be tested. Final CS concentrations of 800 μM, 400 μM, 200 μM, 100 μM, 50 μM, 25 μM and 0 μM were each tested in duplicate flasks. All shake flasks were incubated on a shaker platform set at 125 RPM at 37° C. and 5% carbon dioxide in a humidified incubator. Cultures were monitored at least every other day for viable cell density and overall cell viability.
Cultures were harvested on day 10 when overall cell viability was 49-62%. Cells and cellular debris were removed by centrifugation in a Sorvall Super T21 at 3000 rpm for 20 minutes after which the supernatant was sterile filtered through a Millipore Steriflip unit with a 0.22 μm Millipore Express Plus membrane and stored at 4° C. until purified.

For `O[C@H]1[C@H](O)[C@@H](O)CN2CC[C@H](O)[C@H]12` [castanospermine], the “ADCC activity of TRU-016 purified protein (% specific killing)” value ([1]; 0, 10, 25, 50, 100 or 200 μM castanospermine in culture media) was “dose-dependent increase”, the “ADCC activity of TRU-015 purified protein (% specific killing)” value ([1]; 0-100 μg/mL castanospermine in culture media, PBMC from high affinity (V/V158) and low affinity (F/F158) CD16 donors) was “dose-dependent increase” and the “ADCC of TRU-016 purified protein (% specific killing)” value ([1]; culture media containing 200 μM DMJ, 10 μM kifenunsine or 200 μM castanospermine) was “improved”. The “binding of TRU-016 to CD37 expressing cells (dose response curves)” value ([2]; CHO-K1 produced glycovariants vs control) was “did not alter”, the “binding of TRU-016 to CD37 expressing cells (dose response curves)” value ([2]; DG44 CHO produced, all CS treated samples vs untreated) was “did not alter” and the “CS concentration at which the maximal suppressive effect on TRU-016 production was reached” value ([3]; CHO-K1) was 200 µM. For the same molecule, the “Average ICA (10^6 cells * days/mL) ± SD” value ([3]; CS 25 μM) was 40.8 ± 0.4 10^6 cells * days/mL, the “Average Specific Productivity (pg/cell/day) ± SD” value ([3]; CS 25 μM) was 10.29 ± 0.18 pg/cell/day and the “Average TRU-016 Produced as a % of Control ± SD” value ([3]; CS 25 μM) was 96.7 ± 2.6%. For the same molecule, the “Average TRU-016 Produced (μg/mL) ± SD” value ([3]; CS 25 μM) was 419.36 ± 11.1 µg/mL, the “Viability at Harvest (%)” value ([3]; CS 25 μM) was 57.7% and 53.0% and the “Average ICA (10^6 cells * days/mL) ± SD” value ([3]; CS 50 μM) was 41.6 ± 0.9 10^6 cells * days/mL. For the same molecule, the “Average Specific Productivity (pg/cell/day) ± SD” value ([3]; CS 50 μM) was 10.18 ± 0.45 pg/cell/day, the “Average TRU-016 Produced as a % of Control ± SD” value ([3]; CS 50 μM) was 97.5 ± 6.4% and the “Average TRU-016 Produced (μg/mL) ± SD” value ([3]; CS 50 μM) was 422.84 ± 27.8 µg/mL. The “Viability at Harvest (%)” value ([3]; CS 50 μM) was 61.3%, the “Average ICA (10^6 cells * days/mL) ± SD” value ([3]; CS 100 μM) was 39.0 ± 0.4 10^6 cells * days/mL and the “Average Specific Productivity (pg/cell/day) ± SD” value ([3]; CS 100 μM) was 10.48 ± 0.07 pg/cell/day. For the same molecule, the “Average TRU-016 Produced as a % of Control ± SD” value ([3]; CS 100 μM) was 94.3 ± 1.6%, the “Average TRU-016 Produced (μg/mL) ± SD” value ([3]; CS 100 μM) was 408.60 ± 6.9 µg/mL and the “Viability at Harvest (%)” value ([3]; CS 100 μM) was 61.2% and 55.1%. For the same molecule, the “Average ICA (10^6 cells * days/mL) ± SD” value ([3]; CS 200 μM) was 40.1 ± 2.3 10^6 cells * days/mL, the “Average Specific Productivity (pg/cell/day) ± SD” value ([3]; CS 200 μM) was 10.04 ± 0.69 pg/cell/day and the “Average TRU-016 Produced as a % of Control ± SD” value ([3]; CS 200 μM) was 92.7 ± 1.2%. The “Average TRU-016 Produced (μg/mL) ± SD” value ([3]; CS 200 μM) was 401.93 ± 5.0 µg/mL, the “Viability at Harvest (%)” value ([3]; CS 200 μM) was 61.8% and 56.4% and the “Average ICA (10^6 cells * days/mL) ± SD” value ([3]; CS 400 μM) was 37.6 ± 0.3 10^6 cells * days/mL. For the same molecule, the “Average Specific Productivity (pg/cell/day) ± SD” value ([3]; CS 400 μM) was 10.68 ± 0.28 pg/cell/day, the “Average TRU-016 Produced as a % of Control ± SD” value ([3]; CS 400 μM) was 92.6 ± 3.1% and the “Average TRU-016 Produced (μg/mL) ± SD” value ([3]; CS 400 μM) was 401.22 ± 13.3 µg/mL. The “Viability at Harvest (%)” value ([3]; CS 400 μM) was 56.1% and 62.4%, the “Average ICA (10^6 cells * days/mL) ± SD” value ([3]; CS 800 μM) was 37.6 ± 1.0 10^6 cells * days/mL and the “Average Specific Productivity (pg/cell/day) ± SD” value ([3]; CS 800 μM) was 10.68 ± 0.40 pg/cell/day. The “Average TRU-016 Produced as a % of Control ± SD” value ([3]; CS 800 μM) was 92.5 ± 1.0%, the “Average TRU-016 Produced (μg/mL) ± SD” value ([3]; CS 800 μM) was 401.14 ± 4.1 µg/mL and the “Viability at Harvest (%)” value ([3]; CS 800 μM) was 58.1% and 59.7%. For the same molecule, the “average specific productivity of the cells” value ([3]; CS 25-800 μM) was “no significant effect”, the “overall cell viability or growth (integral cell area)” value ([3]; CS 25-800 μM) was “did not appear to significantly affect” and the “decrease in production of TRU-016 relative to control” value ([3]; CS 25-800 μM, even at the highest concentration of 800 μM) was no more than 7.5%.
